System: rabbit skeletal myofibrils (fast skeletal myofibrils)
Assay: Activation of fast skeletal myofibrils (PUMA assay, PK/LDH-coupled ATPase at pCa25)
Assay type: biochemical
Conditions: AC1.4 determined according to the procedure of Example 39; reported as class symbols
Procedure, shortened: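 Detergent-washed rabbit psoas myofibrils (~90% fast fibres, calcium-regulated) assayed at calcium giving 25% of maximal ATPase rate (pCa25). ADP turnover coupled via pyruvate kinase/lactate dehydrogenase to NADH oxidation, read at 340 nm. Buffer 12 mM PIPES, 2 mM MgCl2, 1 mM DTT, pH 6.8; AC1.4 values derived.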

Mean AC1.4, B (B=1-10 uM):
CC(C)(CNc1ccc(-c2cnc(N)nc2)nn1)c1ccc(F)cc1 [[6-(2-aminopyrimidin-5-yl)pyridazin-3-yl][2-(4-fluorophenyl)-2-methylpropyl]amine], O=c1ncc(-c2ccc(NCC3(c4ccc(F)cc4)CCC3)nn2)c[nH]1, CC(C)(C)OC(=O)N(CC(C)(C)c1ccc(F)cc1)c1ccc(-c2cc(=O)[nH]c(N)n2)nn1, CC(=O)Nc1cccc(-c2ccc(NCC3(c4ncccc4F)CCC3)nn2)c1, C[C@@H](CNc1ccc(-c2cccc(C(N)=O)c2)nn1)c1ccc(F)cc1, CC(C)(CNc1ccc(-c2c[nH]c(N)n2)nn1)c1ccc(F)cc1 [[6-(2-aminoimidazol-4-yl)pyridazin-3-yl][2-(4-fluorophenyl)-2-methylpropyl]amine], NC(=O)n1nc(N)c2cc(-c3ccc(NCC4(c5ncccc5F)CCC4)nn3)ccc21, CC(C)(CNc1ccc(-c2cccc(CO)c2)nn1)c1ccc(F)cc1 [[3-(6-{[2-(4-fluorophenyl)-2-methylpropyl]amino}pyridazin-3-yl)phenyl]methan-1-ol], CCC(CNc1ccc(-c2cccc(C(N)=O)c2)nn1)c1ccccc1F (stereo not drawn) [3-(6-{[2-(2-fluoro-phenyl)butyl]amino}pyridazin-3-yl)benzamide]

Mean AC1.4, D (D=>20 uM):
COC(=O)N1CC(CNc2ccc(-c3ccc4[nH]ncc4c3)nn2)(c2ncccc2F)C1 [methyl 3-(3-fluoro(2-pyridyl))-3-{[(6-(1H-indazol-5-yl)pyridazin-3-yl)amino]methyl}azetidine-carboxylate], NC(=O)c1cccc(-c2ccc(NCCc3ccc(F)cc3F)nn2)c1, NC(=O)c1cccc(-c2ccc(NCC3(c4ncccc4F)CNC3)nn2)c1 [3-[6-({[3-(3-fluoro-2-pyridyl)azetidin-3-yl]methyl}amino)pyridazin-3-yl]benzamide], CC(C)(CNc1ccc(-c2ccc3[nH]nc(C#N)c3c2)nn1)c1ccc(F)cc1 [5-(6-{[2-(4-fluorophenyl)-2-methylpropyl]amino}pyridazin-3-yl)-1H-indazole-3-carbonitrile], CC(C)(CNc1ccc(C(=O)N2CCC2C(N)=O)nn1)c1ccc(F)cc1 (stereo not drawn) [1-[(6-{[2-(4-fluorophenyl)-2-methylpropyl]amino}pyridazin-3-yl)carbonyl]azetidine-2-carboxamide], CC(C)(CNc1ccc(C(=O)NC2(C(N)=O)CC2)nn1)c1ccc(F)cc1 [1-[(6-{[2-(4-fluorophenyl)-2-methylpropyl]amino}pyridazin-3-yl)carbonylamino]cyclopropane-carboxamide], CN1CCN(C(=O)c2ccc(NCC(C)(C)c3ccc(F)cc3)nn2)CC1 [6-{[2-(4-fluorophenyl)-2-methylpropyl]amino}pyridazin-3-yl 4-methylpiperazinyl ketone]

Mean AC1.4, C (C=10-20 uM):
CC(C)(CNc1ccc(-c2noc(C(N)=O)n2)nn1)c1ccc(F)cc1 [3-(6-{[2-(4-fluorophenyl)-2-methylpropyl]amino}pyridazin-3-yl)-1,2,4-oxadiazole-5-carboxamide]

Mean AC1.4, A (A=<1 uM):
COc1cccc(-c2ccc(NCC(C)(C)c3ccc(F)cc3)nn2)n1 [[2-(4-fluorophenyl)-2-methylpropyl][6-(6-methoxy(2-pyridyl))pyridazin-3-yl]amine], CC(C)(CNc1ccc(-c2ccc3[nH]c(O)nc3c2)nn1)c1ncccc1F [5-(6-{[2-(3-fluoro(2-pyridyl))-2-methylpropyl]amino}pyridazin-3-yl)benzimidazol-2-ol], Nc1n[nH]c2ccc(-c3ccc(NCC4(c5ccc(F)cc5)CCCC4)nn3)cc12 [[6-(3-amino(1H-indazol-5-yl))pyridazin-3-yl]{[(4-fluorophenyl)cyclopentyl]meth-yl}amine], COC(=O)Nc1n[nH]c2ccc(-c3ccc(NCC(C)(C)c4ccc(F)cc4)nn3)cc12 [N-[5-(6-{[2-(4-fluorophenyl)-2-methylpropyl]amino}pyridazin-3-yl)(1H-indazol-3-yl)]methoxycarboxamide]

Same assay, conditions: median AC1.4 class, procedure of Example 39

Mean AC1.4, C (C=10-20 uM):
Cc1ncccc1-c1ccc(NCC2(c3ncccc3F)CCC2)nn1 [{[(3-fluoro(2-pyridyl))cyclobutyl]methyl}[6-(2-methyl(3-pyridyl))pyridazin-3-yl]amine]

Mean AC1.4, B (B=1-10 uM):
CC(C)(Nc1ccc(-c2cccc(C(N)=O)c2)nn1)c1cccc(F)c1 [3-(6-{[1-(3-fluorophenyl)-isopropyl]amino}pyridazin-3-yl)benzamide], Fc1cccnc1C1(CNc2ccc(C3CCCCC3)nn2)CCC1 [(6-cyclohexylpyridazin-3-yl){[(3-fluoro(2-pyridyl))cyclobutyl]methyl}amine], NC(=O)N[C@H]1C[C@@H](c2ccc(NCC3(c4ncccc4F)CCC3)nn2)C1, Cn1nc(-c2ccc(NCC3(c4ncccc4F)CCC3)nn2)cc1C(N)=O, NC(=O)c1cccc(-c2ccc(NC3(c4ccc(F)cn4)CCC3)nn2)c1, O=C(NC[C@@H](O)CO)c1cnc(-c2ccc(NCC3(c4ncccc4F)CCC3)nn2)s1 [N-((2R)-2,3-dihydroxypropyl){2-[6-({[(3-fluoro(2-pyridyl))cyclobutyl]methyl}ami-no)pyridazin-3-yl](1,3-thiazol-5-yl)}carboxamide], CC(C)(CNc1ccc(-c2cc(C#N)ccc2F)nn1)c1ncccc1Cl [3-(6-{[2-(3-chloro(2-pyridyl))-2-methylpropyl]amino}pyridazin-3-yl)-4-fluorobenzenecarbonitrile]

Mean AC1.4, A (A=<1 uM):
CNc1n[nH]c2ccc(-c3ccc(NC[C@]4(c5ncccc5F)C[C@H](F)C4)nn3)cc12 [{[3-fluoro-1-(3-fluoro(2-pyridyl))cyclobutyl]methyl}{6-[3-(methylamino)(1H-indazol-5-yl)]pyridazin-3-yl}amine], NC(=O)Nc1ccc(-c2ccc(NCC3(c4ncccc4F)CC(F)(F)C3)nn2)cc1

Mean AC1.4, D (D=>20 uM):
COC(=O)c1coc(-c2ccc(NCC3(c4ncccc4F)CCC3)nn2)n1, O=C(O)c1cc(-c2ccc(NCC3(c4ncccc4F)CCC3)nn2)on1, COC(=O)c1c[nH]c(-c2ccc(NCC3(c4ncccc4F)CCC3)nn2)n1 [methyl 2-[6-({[(3-fluoro-2-pyridyl)cyclobutyl]methyl}ami-no)pyridazin-3-yl]imidazole-4-carboxylate], Fc1cccnc1C1(CNc2ccc(-c3nn[nH]n3)nn2)CCC1 [(6-(2H-1,2,3,4-tetraazol-5-yl)pyridazin-3-yl){[(3-fluoro(2-pyridyl))cyclobutyl]methyl}amine], NC(=O)[C@@H]1C[C@@H]1c1ccc(NCC2(c3ncccc3F)CCC2)nn1, C=Cc1ccc(NC2(c3ncccc3F)CCC2)nn1 [[(3-fluoro(2-pyridyl))cyclobutyl](6-vinylpyridazin-3-yl)amine], FC(F)(CNc1ccc(-c2ccc3cn[nH]c3c2)nn1)c1ccccn1 [(6-(1H-indazol-6-yl)pyridazin-3-yl)(2,2-difluoro-2-(2-pyridyl)ethyl)amine], NC(=O)c1ccc(F)c(-c2ccc(NC3(c4ncccc4O)CCC3)nn2)c1

Same assay, conditions: median AC1.4 reported as class; procedure of Example 39

Mean AC1.4, D (D=>20 uM):
CC(C)(C(N)=O)c1cnc(-c2ccc(NCC3(c4ncccc4F)CCC3)nn2)s1 [2-{2-[6-({[(3-fluoro(2-pyridyl))cyclobutyl]methyl}ami-no)pyridazin-3-yl](1,3-thiazol-5-yl)}-2-methylpropanamide], Cn1ccc(CNC(=O)c2ccc(NCC3(c4ncccc4F)CCC3)nn2)n1 [[6-({[(3-fluoro(2-pyridyl))cyclobutyl]methyl}ami-no)pyridazin-3-yl]-N-[(1-methylpyrazol-3-yl)methyl]carboxamide]

Mean AC1.4, B (B=1-10 uM):
NC(=O)CCc1cnc(-c2ccc(NCC3(c4ncccc4F)CCC3)nn2)s1 [3-{2-[6-({[(3-fluoro-2-pyridyl)cyclobutyl]methyl}ami-no)pyridazin-3-yl]-1,3-thiazol-5-yl}propanamide], CNc1ccc(-c2ccc(NC[C@]3(c4ncccc4F)C[C@H](F)C3)nn2)cn1 [{[3-fluoro-1-(3-fluoro(2-pyridyl))cyclobutyl]methyl}{6-[6-(methylamino)(3-pyridyl)]pyridazin-3-yl}amine], CNC(=O)Cc1cnc(-c2ccc(NCC3(c4ncccc4F)CCC3)nn2)s1 [2-{2-[6-({[(3-fluoro(2-pyridyl))cyclobutyl]methyl}ami-no)pyridazin-3-yl](1,3-thiazol-5-yl)}-N-methylacetamide]

Mean AC1.4, A (A=<1 uM):
N#Cc1cc(N)cc(-c2ccc(NC[C@]3(c4ncccc4F)C[C@H](F)C3)nn2)c1 [5-amino-3-[6-({[3-fluoro-1-(3-fluoro(2-pyridyl))cyclobutyl]methyl}ami-no)pyridazin-3-yl]benzenecarbonitrile]
